Measured values from paper PMC11124822, “Discovery and Anticancer Screening of Novel Oxindole-Based Derivative Bearing Pyridyl Group as Potent and Selective Dual FLT3/CDK2 Kinase Inhibitor” (Pharmaceuticals, 2024).

Legend:
Assay in all cases: NCI-60 antiproliferative screen (SRB)
[1] = tested on: RPMI-8226; format: cell-based, human; settings: Homo sapiens; 10 µM single dose, 48 h; RPMI-8226 (Leukemia); read-out: Growth inhibition (%)
[2] = tested on: A498; format: cell-based, human; settings: Homo sapiens; 10 µM single dose, 48 h; A498 (Renal); read-out: Growth inhibition (%)
[3] = tested on: OVCAR-5; format: cell-based, human; settings: Homo sapiens; 10 µM single dose, 48 h; OVCAR-5 (Ovarian); read-out: Growth inhibition (%)
[4] = tested on: SR; settings: Homo sapiens, 48 h, read-out: Growth inhibition (%)
[5] = tested on: T-47D; format: cell-based, human; settings: Homo sapiens, T47D; 10 µM single dose, 48 h; T-47D (Breast); read-out: Growth inhibition (%)
[6] = tested on: RXF 393; format: cell-based, human; settings: Homo sapiens; 10 µM single dose, 48 h; RXF 393 (Renal); read-out: Growth inhibition (%)
[7] = tested on: ACHN; format: cell-based, human; settings: Homo sapiens; 10 µM single dose, 48 h; ACHN (Renal); read-out: Growth inhibition (%)
[8] = tested on: NCI/ADR-RES; format: cell-based, human; settings: Homo sapiens; 10 µM single dose, 48 h; NCI/ADR-RES (Ovarian); read-out: Growth inhibition (%)
[9] = tested on: SNB-19; format: cell-based, human; settings: Homo sapiens; 10 µM single dose, 48 h; SNB-19 (CNS); read-out: Growth inhibition (%)
[10] = tested on: NCI-H460; format: cell-based, human; settings: Homo sapiens; 10 µM single dose, 48 h; NCI-H460 (NSCLC); read-out: Growth inhibition (%)
[11] = tested on: UACC-62; format: cell-based, human; settings: Homo sapiens; 10 µM single dose, 48 h; UACC-62 (Melanoma); read-out: Growth inhibition (%)
[12] = tested on: KM12; format: cell-based, human; settings: Homo sapiens; 10 µM single dose, 48 h; KM12 (Colon); read-out: Growth inhibition (%)
[13] = tested on: SK-MEL-5; format: cell-based, human; settings: Homo sapiens; 10 µM single dose, 48 h; SK-MEL-5 (Melanoma); read-out: Growth inhibition (%)
[14] = tested on: TK-10; format: cell-based, human; settings: Homo sapiens; 10 µM single dose, 48 h; TK-10 (Renal); read-out: Growth inhibition (%)
[15] = tested on: CCRF-CEM; format: cell-based, human; settings: Homo sapiens; 10 µM single dose, 48 h; CCRF-CEM (Leukemia); read-out: Growth inhibition (%)
[16] = tested on: SK-MEL-28; format: cell-based, human; settings: Homo sapiens; 10 µM single dose, 48 h; SK-MEL-28 (Melanoma); read-out: Growth inhibition (%)
[17] = tested on: HOP-62; format: cell-based, human; settings: Homo sapiens; 10 µM single dose, 48 h; HOP-62 (NSCLC); read-out: Growth inhibition (%)
[18] = tested on: MCF7; format: cell-based, human; settings: Homo sapiens; 10 µM single dose, 48 h; MCF7 (Breast); read-out: Growth inhibition (%)
[19] = tested on: HOP-92; format: cell-based, human; settings: Homo sapiens; 10 µM single dose, 48 h; HOP-92 (NSCLC); read-out: Growth inhibition (%)
[20] = tested on: NCI-H522; format: cell-based, human; settings: Homo sapiens; 10 µM single dose, 48 h; NCI-H522 (NSCLC); read-out: Growth inhibition (%)
[21] = tested on: SK-OV-3; format: cell-based, human; settings: Homo sapiens; 10 µM single dose, 48 h; SK-OV-3 (Ovarian); read-out: Growth inhibition (%)
[22] = tested on: UACC-257; format: cell-based, human; settings: Homo sapiens; 10 µM single dose, 48 h; UACC-257 (Melanoma); read-out: Growth inhibition (%)
[23] = tested on: OVCAR-4; settings: Homo sapiens, OVCAR-4, 48 h, read-out: Growth inhibition (%)
Protocol: Anticancer activity was tested against 60 cancer cell lines (NCI-60) after 48h treatments with a single dosage of 10 μM of compounds by using sulforhodamine B assay [39] on the traditional 96-well platform. […] The human cancer cell lines of the NCI-60 panel are grown in RPMI 1640 medium supplemented with 5% FBS (fetal bovine serum) and 2 mM L-glutamine. […] For further analysis of promising compounds, five dose screens were performed against the NCI-60 panel. Drug treatments are performed in 5 doses using 10-fold or ½ log dose dilutions.

[24] = tested on: SF-268; format: cell-based, human; settings: Homo sapiens; 10 µM single dose, 48 h; SF-268 (CNS); read-out: Growth inhibition (%)
[25] = tested on: EKVX; format: cell-based, human; settings: Homo sapiens; 10 µM single dose, 48 h; EKVX (NSCLC); read-out: Growth inhibition (%)
[26] = tested on: MDA-MB-231; format: cell-based, human; settings: Homo sapiens; 10 µM single dose, 48 h; MDA-MB-231 (Breast); read-out: Growth inhibition (%)
[27] = tested on: COLO 205; format: cell-based, human; settings: Homo sapiens; 10 µM single dose, 48 h; COLO 205 (Colon); read-out: Growth inhibition (%)
[28] = tested on: M14; format: cell-based, human; settings: Homo sapiens; 10 µM single dose, 48 h; M14 (Melanoma); read-out: Growth inhibition (%)

O=C1Nc2ccccc2C1=Cc1ccc(OCc2cccnc2)cc1 (mixture of isomers) [Compound 5i, (E/Z)-3-[4-(Pyridin-3-ylmethoxy)benzylidene]indolin-2-one]
inhibition at 10 µM [1]: 45.4% | inhibition at 10 µM [2]: -17.8% | inhibition at 10 µM [3]: -27.6% | inhibition at 10 µM [4]: 72% | inhibition at 10 µM [5]: 51% | inhibition at 10 µM [6]: 24.9% | inhibition at 10 µM [7]: 37.5% | inhibition at 10 µM [8]: 55% | inhibition at 10 µM [9]: 37.1% | inhibition at 10 µM [10]: 21.7% | inhibition at 10 µM [11]: 43.5% | inhibition at 10 µM [12]: 87.4% | inhibition at 10 µM [13]: 59.4% | inhibition at 10 µM [14]: -15.7% | inhibition at 10 µM [15]: 52.4% | inhibition at 10 µM [16]: -2.65% | inhibition at 10 µM [17]: 37.2% | inhibition at 10 µM [18]: 58% | inhibition at 10 µM [19]: 35.4% | inhibition at 10 µM [20]: 49.9% | inhibition at 10 µM [21]: 13.2% | inhibition at 10 µM [22]: 30.5% | inhibition at 10 µM [23]: 37.8% | inhibition at 10 µM [24]: -19.6% | inhibition at 10 µM [25]: 31.7% | inhibition at 10 µM [26]: 35.4% | inhibition at 10 µM [27]: 26.1% | inhibition at 10 µM [28]: 37.6%
